In patent US12617784B2, “AKT inhibitor” (Nanjing Chia Tai Tianqing Pharmaceutical Co., Ltd., priority 2019, dated 2026):
Counter-ions that a name gives are not always drawn. Like-named read-outs stand apart in the source and are kept apart here.

Tests used:
[1] = Pharmacokinetic evaluation in mice after intragastric administration; assay type: in vivo, mouse; conditions: po
Procedure: 400 μl of stock solution with a concentration of 10 mg/mL was accurately pipetted into a glass bottle, and 3.6 mL of mixed menstruum was added. The ratio of the menstruum in the final formulation is DMSO:mixed menstruum (v/v)=10:90. After vortexing (or sonication) and evenly distributed, 4 mL of a dosing solution with a concentration of 1 mg mL^-1 for each compound was obtained. Formulation of Isomer 2 of the compound of Example 15: Menstruum: DMSO: PEG400: ultrapure water=5:20:75 (v/v/v) 5.37 mg of test sample Isomer 2 of the compound of Example 15 was weighed into a glass bottle; 0.269 mL of DMSO was added, vortexed to completely dissolve the solid material; 1.074 mL of PEG400 was added, vortexed, and mixed; 4.028 mL of ultrapure water was added, vortexed and mixed to obtain a colorless solution with a concentration of 1 mg·mL^-1. Experimental animal: mouse, strain ICR, source: Weitong Lihua Laboratory Animal Technology Co., Ltd., age: 6-10 weeks, male. [table] The experimental animals were fed in the animal room of Suzhou Shengsu New Pharmaceutical Development Co., Ltd. The animal room was well ventilated and equipped with air conditioning. The temperature was maintained at 20-25° C. and the humidity was maintained at 40%-70%. Bright and dark lighting for 12 hours each, and the experimental animals ate and drank freely. After normal feeding for at least 5 days, mice with good physical signs were selected for this experiment after veterinary inspection. Each mouse was marked with a tag on its tail. On the day before the experiment, the mice were fasted overnight and were allowed to drink freely, and were fed 4 hours after the administration. […] After the administration, about 100 μL of blood was collected from the orbit of the mouse at each time point and placed in an EDTA-K2 anticoagulation tube. […] An LC-MS/MS analytical method for determining the concentration of compounds in mouse plasma was established and used to determine the concentration of compounds in the biological samples obtained in this experiment. The non-compartmental model in Pharsight Phoenix 7.0 was used to calculate the pharmacokinetic parameters.

AKT2 = biological target: T1, AKT2 (Homo sapiens, UniProt P31751); assay: In vitro enzyme activity test (HTRF kinEASE TK), AKT2; assay type: biochemical; conditions: ATP 20 μM, enzyme 0.1 ng/well, reaction 50 min
T1 construct: purchased Carna 01-102
T1 sequence (P31751 whole entry): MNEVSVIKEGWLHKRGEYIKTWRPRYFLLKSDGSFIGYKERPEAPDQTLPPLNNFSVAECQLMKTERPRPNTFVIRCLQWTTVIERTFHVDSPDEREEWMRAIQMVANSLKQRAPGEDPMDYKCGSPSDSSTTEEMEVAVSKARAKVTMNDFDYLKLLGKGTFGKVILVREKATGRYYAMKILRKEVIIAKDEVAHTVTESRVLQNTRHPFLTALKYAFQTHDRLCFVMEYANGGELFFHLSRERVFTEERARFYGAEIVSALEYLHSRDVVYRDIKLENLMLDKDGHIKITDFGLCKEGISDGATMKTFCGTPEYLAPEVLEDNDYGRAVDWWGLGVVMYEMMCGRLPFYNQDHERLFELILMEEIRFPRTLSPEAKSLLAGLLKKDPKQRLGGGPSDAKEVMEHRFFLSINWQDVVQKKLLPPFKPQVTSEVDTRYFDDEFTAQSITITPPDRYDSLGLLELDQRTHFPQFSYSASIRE
Procedure: (§1) Experimental Procedure 2.1 Preparation of Reagents
(§2) 1 mL 1× Kinase Reaction Buffer of Kinase AKT1, AKT2 and AKT3 contain 200 μL 5× Kinase Reaction Buffer, 5 μL 1 M MgCl2, 1 μL 1 M DTT and 794 μL ultrapure water.
(§3) In addition to the control wells, 4 μL of the diluted compound working solutions were added to all reaction wells.
(§4) b) 2 μL of the previously prepared TK-biotin substrate solution was added to all reaction wells.
(§5) c) 2 μL of the previously prepared enzyme solution was added to all reaction wells, except the negative wells. The volume of the negative well was filled with 2 μL of enzyme corresponding to 1× kinase reaction buffer. The plate was sealed with sealing film. After mixing, the plate was incubated at room temperature for 10 min to allow the compound and enzyme to fully combined.
(§6) d) 2 μL of ATP solution was added to all reaction wells to start the kinase reaction.
(§7) e) The test solution was prepared 5 min before the end of the kinase reaction.
(§8) f) After the kinase reaction was completed, 5 μL of diluted streptavidin-XL665 were added to all reaction wells, and immediately the diluted europium-labeled tyrosine kinase substrate antibody detection solution was added after mixing.
(§9) g) The plate was sealed and mixed well. […] The inhibition rate of each well was calculated through the fully active wells and the background signal wells, taking the average value in case of multiple wells. Meanwhile, the professional drawing analysis software PRISM 6.0 was used to fit the half maximal inhibitory concentration (IC50) of each test compound.

AKT3 = biological target: T2, AKT3 (Homo sapiens, UniProt Q9Y243); assay: In vitro enzyme activity test (HTRF kinEASE TK), AKT3; assay type: biochemical; conditions: enzyme 0.3 ng/well, reaction 50 min
T2 construct: purchased Invitrogen PV3185
T2 sequence (Q9Y243 whole entry): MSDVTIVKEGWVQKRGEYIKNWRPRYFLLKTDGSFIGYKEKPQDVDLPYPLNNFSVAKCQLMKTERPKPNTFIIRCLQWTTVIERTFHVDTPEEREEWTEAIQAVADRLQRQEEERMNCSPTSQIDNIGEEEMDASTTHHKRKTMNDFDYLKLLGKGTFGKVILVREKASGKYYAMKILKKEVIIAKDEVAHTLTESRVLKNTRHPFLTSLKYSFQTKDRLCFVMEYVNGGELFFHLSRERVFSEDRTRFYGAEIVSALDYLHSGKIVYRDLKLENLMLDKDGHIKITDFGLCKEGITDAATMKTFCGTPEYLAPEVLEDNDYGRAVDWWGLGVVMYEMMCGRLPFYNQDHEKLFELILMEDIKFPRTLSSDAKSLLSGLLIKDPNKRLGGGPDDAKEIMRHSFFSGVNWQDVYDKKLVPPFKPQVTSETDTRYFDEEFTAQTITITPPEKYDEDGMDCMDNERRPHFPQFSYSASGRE
Procedure: as §1, §2, §3, §4, §5, §6, §7, §8, §9

AKT1 = AKT1 (Homo sapiens, UniProt P31749); assay: In vitro enzyme activity test (HTRF kinEASE TK), AKT1; assay type: biochemical; conditions: ATP 2 μM, enzyme 0.6 ng/well, reaction 50 min
AKT1, sequence (P31749 whole entry): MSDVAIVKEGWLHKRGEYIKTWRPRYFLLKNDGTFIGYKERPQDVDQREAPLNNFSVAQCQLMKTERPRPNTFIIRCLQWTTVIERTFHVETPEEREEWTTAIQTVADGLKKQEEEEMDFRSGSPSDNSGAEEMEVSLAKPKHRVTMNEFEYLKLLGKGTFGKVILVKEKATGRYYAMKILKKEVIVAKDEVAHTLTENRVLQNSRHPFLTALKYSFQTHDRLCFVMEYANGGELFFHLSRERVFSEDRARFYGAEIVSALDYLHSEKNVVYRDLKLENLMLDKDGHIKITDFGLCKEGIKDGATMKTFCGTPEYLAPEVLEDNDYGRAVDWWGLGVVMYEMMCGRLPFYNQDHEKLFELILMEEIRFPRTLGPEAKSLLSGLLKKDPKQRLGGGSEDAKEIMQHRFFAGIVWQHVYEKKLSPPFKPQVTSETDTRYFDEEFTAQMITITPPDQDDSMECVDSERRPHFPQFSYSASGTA
Procedure: as §1, §2, §3, §4, §5, §6, §7, §8, §9

[2] = male ICR mouse, 10 mg·kg−1 intragastrically, single dose, fasted, plasma
[3] = male ICR mouse, 10 mg·kg−1 intragastrically, single dose, fasted, plasma, read-out: AUC
[4] = male ICR mouse, 10 mg·kg−1 intragastrically, single dose, fasted, plasma, read-out: Cmax
[5] = male ICR mouse, 10 mg·kg−1 intragastrically, single dose, fasted, plasma, read-out: Tmax
[6] = male, ICR, mouse, in vivo, 10 mg/kg

SMILES | half-life [1, 2] [h] | AUC [1, 3] [µg·h/mL] | Cmax [1, 4] [µg/mL] | Tmax [1, 5] [h] | IC50 (AKT2) [µM] | IC50 (AKT3) [µM] | IC50 (AKT1) [µM] | AUC [1, 6] [µg·h/mL] | Cmax [1, 6] [µg/mL] | Tmax [1, 6] [h]
CC(C)NC[C@@H](C(=O)N1CCN(c2ncnc3c2[C@H](C)CC(=O)N3)[C@H]2C[C@H]21)c1ccc(Cl)cc1 (single isomer, unassigned) [Example 15 Isomer 2] | 3.16 | 2.17 | 0.583 | 1 |  |  |  |  |  | 
CC(C)NC[C@@H](C(=O)N1C2CCC1CN(c1ncnc3c1[C@H](C(F)(F)F)CC(=O)N3)C2)c1ccc(Cl)cc1 (single isomer, unassigned) [Example 24 Isomer 2] |  |  |  |  | ≥ 1 | 0.019 | 0.116 |  |  | 
CC(C)NC[C@@H](C(=O)N1CC2CCC(C1)N2c1ncnc2c1[C@@H](C(F)(F)F)CC(=O)N2)c1ccc(Cl)cc1 (single isomer, unassigned) [Example 25 Isomer 1] |  |  |  |  | ≥ 1 | 0.02 | 0.218 |  |  | 
CC(C)NC[C@@H](C(=O)N1CC2CCC(C1)N2c1ncnc2c1[C@H](C(F)(F)F)CC(=O)N2)c1ccc(Cl)cc1 (single isomer, unassigned) [Example 25 Isomer 2] |  |  |  |  | 0.02 | 0.00019 | 0.00059 |  |  | 
CC(C)NC[C@@H](C(=O)N1CCN(c2ncnc3c2N(C)CC(=O)N3)[C@@H]2C[C@@H]21)c1ccc(Cl)cc1 (single isomer, unassigned) [Example 27 Isomer 2] |  |  |  |  | ≥ 1 | 0.0074 | 0.147 |  |  | 
CC(C)NC[C@@H](C(=O)N1CCN(c2ncnc3c2[C@H](C)OC(=O)N3)[C@H]2C[C@H]21)c1ccc(Cl)cc1 (single isomer, unassigned) [Example 34 Isomer 4] |  | 2.58 | 0.497 | 4 |  | 0.00012 | 0.0006 |  |  | 
CC(C)NC[C@@H](C(=O)N1C2CCC1CN(c1ncnc3c1[C@@H]1C[C@@H]1C(=O)N3)C2)c1ccc(Cl)cc1 (single isomer, unassigned) [Example 39 Isomer 1] |  |  |  |  | 0.075 | 0.0076 | 0.013 |  |  | 
CC(C)NC[C@@H](C(=O)N1C2CCC1CN(c1ncnc3c1[C@H]1C[C@H]1C(=O)N3)C2)c1ccc(Cl)cc1 (single isomer, unassigned) [Example 39 Isomer 2] |  |  |  |  | 0.756 | 0.043 | 0.151 |  |  | 
CC(C)NCC(C(=O)N1CCN(c2ncnc3c2[C@H](C)CC(=O)N3)C[C@@H]1C)c1ccc(Cl)cc1 (stereo in doubt) [Example 9, (R)-4-((S)-4-((R)-2-(4-chlorophenyl)-3-(isopropylamino)propionyl)-3-methylpiperazin-1-yl)-5-methyl-5,8-dihydropyrido[2,3-d]pyrimidin-7(6H)-one] |  |  |  |  | 0.206 | 0.0033 | 0.167 |  |  | 
CC(C)NC[C@@H](C(=O)N1C2CCC1CN(c1ncnc3c1[C@H](C)CC(=O)N3)C2)c1ccc(Cl)cc1 [Example 10, (R)-4-(8-((S)-2-(4-chlorophenyl)-3-(isopropylamino)propionyl)-3,8-diazabicyclo[3.2.1]octan-3-yl)-5-methyl-5,8-dihydropyrido[2,3-d]pyrimidin-7(6H)-one] | 1.67 | 0.911 | 0.321 | 0.5 |  | 0.00021 | 0.0028 |  |  | 
CC(C)NC[C@@H](C(=O)N1C2CCC1CN(c1ncnc3c1N(C)CC(=O)N3)C2)c1ccc(Cl)cc1 [Example 21, 4-(8-((S)-2-(4-chlorophenyl)-3-(isopropylamino)propionyl)-3,8-diazabicyclo[3.2.1]octan-3-yl)-5-methyl-5,8-dihydropteridine-7(6H)-one formate] |  |  |  |  |  | 0.0002 | 0.0019 | 2.29 | 0.681 | 1
CC(C)NC[C@@H](C(=O)N1CCN(c2ncnc3c2[C@H](C)C[C@H]3O)CC1)c1ccc(Cl)cc1 [GDC-0068, reference compound] | 2.59 | 0.32 | 0.0753 | 2 |  |  |  |  |  | 
